Source: US9597369B2, “Inhibitors of atypical protein kinase C and their use in treating hedgehog pathway-dependent cancers” (The Board of Trustees of the Leland Stanford Junior …, priority 2011, dated 2017)
Peptide text beside a SMILES is read from it. * marks the point of attachment. Myristoyl = CCCCCCCCCCCCCC(=O)*

Legend:
allografted BCC tumors = settings: mouse, in vivo
Text: All mouse studies were approved by and conformed to the policies and regulations of the Institutional Animal Care and Use Committees at Stanford University and the Children's Hospital Oakland Research Institute. Ptch1+/−, K14CreER2, p53flox/flox mice were used to develop BCC tumors. Tumors were allografted as previously described (Wang, G. Y. et al. Establishment of Murine Basal Cell Carcinoma Allografts: A Potential Model for Preclinical Drug Testing and for Molecular Analysis. Journal of Investigative Dermatology (2011).doi:10.1038/jid.2011.204). Nine tumors from three mice were treated topically twice daily with 0.8 mg/kg PSI dissolved in DMSO for at least 32 days. Ten tumors from three mice were treated with DMSO twice daily as a control. Mice were euthanized and tumors harvested depending on tumor size that exceeded our animal care guidelines. We measured the change in tumor size with calipers every three to four days. Pairwise comparisons between DMSO and PSI treatment were done using a two-sided unpaired t test with GraphPad Prism software.

non-tumorigenic cells = assay: Proliferation of non-tumorigenic cells; format: cell-based, mouse and human; settings: mouse dermal fibroblasts, mouse keratinocytes, human retinal pigment epithelial cells, FIG. 7
Method: (§1) Primary mouse dermal cells were isolated as previously described (Bershteyn, M., Atwood, S. X., Woo, W.-M., Li, M. & Oro, A. E. MIM and cortactin antagonism regulates ciliogenesis and hedgehog signaling. Dev. Cell 19, 270-283 (2010)). Dermal cells were grown in Amniomax media containing supplement and antibiotics (Invitrogen). ASZ001 cells were grown in 154CF media containing 2% chelated FBS, HKGS supplement, and antibiotics (Invitrogen). Keratinocytes (HPA Culture Collections) were grown in CnT-07 media containing supplement and 0.07 mM CaCl2 (CelINTec). Cells were sterum-starved between 24-48 hrs to induce ciliogenesis. MTT cell proliferation assay was performed using manufacturer's protocol from Invitrogen.

ASZ001 cells [1] = format: cell-based, mouse; settings: 48 h
Method: as §1
(§2) Subconfluent ASZ001 cells were serum-starved and inhibitors added for 48 hrs prior to MTT assay and 24 hrs prior to visualize cilia and assay Gli target gene induction. Stability assays performed with ASZ001 preincubated with PSI for one hour before 20 ug/ml cyclohexamide addition at various time points.

Hh signaling = Hh signaling (gli1 mRNA, Gli target gene induction) in BCC cells; format: cell-based, mouse
Method: as §2
(§3) Aligned 36 bp raw reads with Bowtie using the NCBI37/mm9 reference genome. Differential expression analysis was performed on the 3′ exon with the Cufflinks suite using mouse RefSeq gene predictions as a reference transcriptome. Annotated coding transcripts were filtered for significant expression by a RPKM of 25 in at least one sample set. […] Transcripts were validated using Brilliant II SYBR Green qRT-PCR Master Mix Kit (Agilent Technologies) with primers listed in the following table. Two-tail p-value between our gene sets and other gene sets calculated using Fisher's Exact Test.

ASZ001 cells [2] = assay: 3' end RNA sequencing of inhibitor-treated BCC cells; format: cell-based, mouse; settings: inhibitor 24 hrs, FIG. 3a
Method: as §3

Structure (SMILES): CCCCCCCCCCCCCC(=O)N[C@@H](CO)C(=O)N[C@H](C(=O)N[C@@H](Cc1ccc(O)cc1)C(=O)N[C@@H](CCCNC(=N)N)C(=O)N[C@@H](CCCNC(=N)N)C(=O)NCC(=O)N[C@@H](C)C(=O)N[C@@H](CCCNC(=N)N)C(=O)N[C@@H](CCCNC(=N)N)C(=O)N[C@@H](Cc1c[nH]c2ccccc12)C(=O)N[C@@H](CCCNC(=N)N)C(=O)N[C@@H](CCCCN)C(=O)N[C@@H](CC(C)C)C(=O)N[C@@H](Cc1ccc(O)cc1)C(=O)O)[C@@H](C)CC [PSI] (Myristoyl-SIYRRGARRWRKLY-OH)
- adverse effects on normal skin (allografted BCC tumors): no adverse effects to PSI treatment except a mild hair phenotype
- proliferation in non-tumorigenic cells (non-tumorigenic cells): unaffected
- IC50 (ASZ001 cells [1]): 5 µM

Structure (SMILES): CNC1CCC(N(Cc2cccc(-c3ccncc3)c2)C(=O)c2sc3ccccc3c2Cl)CC1 (centres unmarked) [SAG]
- gli1 transcription (Hh signaling; BCC cells, agonist alone, FIG. 3d): activates gli1 transcription

Structure (SMILES): Cc1nn(-c2ccccc2)c(C)c1/C=N/N1CCN(Cc2ccccc2)CC1 [Sant-1]
- transcripts changed two-fold or greater compared to control (ASZ001 cells [2]): 5700 transcripts
- cdc42 transcript (Hh signaling; mouse BCC cells, FIG. 2i): repressed
- pard6a transcript (Hh signaling; mouse BCC cells, FIG. 2i): elevated

Structure (SMILES): CC1=C2C[C@H]3[C@@H](CC=C4C[C@@H](O)CC[C@@]43C)[C@@H]2CC[C@]12O[C@@H]1C[C@H](C)CN[C@H]1[C@H]2C [cyclopamine]
- gli1 and apkciota transcript (Hh signaling; BCC cells, FIG. 2g): specifically suppressed
